US20230174488A1 (priority 2020, published 2023)
Values after ≈ are worked out from the molar mass of the structure shown. Read-outs that look alike come from different tables or passages of the source.

What was measured:
[1] = target: T1, SARS-CoV-2 M^PRO (Severe acute respiratory syndrome coronavirus 2, UniProt P0DTD1); test: biochemical; assay type: biochemical; details: In vitro potency data; 30 min pre-incubation, 25 nM M^pro, 25 µM substrate; read-out: IC50
[2] = in vitro; details: mouse
[3] = assay type: in vitro ADME; details: human, microsomes
Experimental: (§1) Cold ACN, including 100 ng/ml tolbutamide and 100 ng/ml labetalol as internal standard (IS), was used for the stop solution. Compound or control working solution (10 µl per well) was added to all plates (T0, T5, T10, T20, T30, T60, and NCF60), except the matrix blank. Dispensed microsome solution (80 µl per well) was added to every plate by Apricot and the mixture of microsome solution and compound was incubated at 37° C. for approximately 10 min. After prewarming, a dispensed NADPH regenerating system (10 µl per well) was added to every plate by Apricot to start a reaction. The solution was then incubated at 37° C. Stop solution (300 µl per well, 4° C.) was then added to terminate the reaction. The sampling plates were shaken for approximately 10 minutes. The samples were centrifuged at 4,000 rpm. for 20 min at 4° C. While centrifuging, new 8×96-well plates were loaded with 300 µl HPLC water, and then 100 µl supernatant was transferred and mixed for liquid chromatography-tandem mass spectrometry (LC/MS/MS).

[4] = target: CYP 2C19 (Homo sapiens, UniProt P33261); test: CYP inhibition assay, 2C19
Chain of CYP 2C19 (P33261 whole entry): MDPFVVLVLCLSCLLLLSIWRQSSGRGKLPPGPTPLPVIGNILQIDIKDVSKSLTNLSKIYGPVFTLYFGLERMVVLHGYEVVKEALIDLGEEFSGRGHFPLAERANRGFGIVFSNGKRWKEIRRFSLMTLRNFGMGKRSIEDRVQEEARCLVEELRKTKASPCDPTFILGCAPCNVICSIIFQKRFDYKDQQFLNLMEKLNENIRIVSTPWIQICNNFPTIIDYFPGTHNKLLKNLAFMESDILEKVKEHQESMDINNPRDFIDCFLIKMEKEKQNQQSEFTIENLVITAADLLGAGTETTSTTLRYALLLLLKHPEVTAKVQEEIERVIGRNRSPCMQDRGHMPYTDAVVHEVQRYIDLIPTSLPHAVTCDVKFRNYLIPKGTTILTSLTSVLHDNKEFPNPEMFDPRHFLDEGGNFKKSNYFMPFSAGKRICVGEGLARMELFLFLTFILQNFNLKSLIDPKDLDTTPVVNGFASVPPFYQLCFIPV
Experimental: (§2) The following reagents/reactants were used in the assay: water was purified by ELGA Lab purification systems, buffer solution: PB (100 mM), MgCl2 (33 mM), organic solvents were AR or HPLC grade, CYP substrates: phenacetin (10 µM, 25 µL, 1A2), diclofenac (5 µM, 25 µL, 2C9), S-mephenytoin (30 µM, 75 µL, 2C19), dextromethorphan (5 µM, 12,5, 2D6), and midazolam (2 µM, 10 µL, 3A4), stock solutions were prepared in MeOH (20, 10, 20, 20, and 10 mM, respectively). Positive controls: α-naphthoflavone, sulfaphenazole, (+)-N-3-benzylnirvanol, quinidine, and ketoconazole, final concentration was 3 µM in MeOH (90 µL), stock solutions were prepared in DMSO (3 mM for all the inhibitors). Test compounds were evaluated using five conc. points at the range of 15-5,000 µM. […] Main procedure: working solution (100×) of the test compound and standard inhibitors were prepared, microsomes were pulled out of the -80° C. freezer to thaw on ice, labeled the date and put it back to the freezer immediately after use. Substrates (20 µL) and PB (20 µL) were added to corresponding wells and Blank wells, respectively. […] HLM working solution (158 µL) was added to all wells of the incubation plate. Plate was pre-warmed for about 10 min at 37° C. in a water bath, then NADPH (20 µL) was added to all incubation wells. CYPs were mixed and incubated for 10 min at 37° C. in a water bath. The reaction was terminated at the time point by adding a 400 µL cold stop solution (200 ng/mL tolbutamide and labetalol in ACN). Samples were centrifuged at 4000 rpm for 20 minutes to precipitate protein. Supernatant (200 µL) was transferred to 100 µL HPLC water and shaken for 10 min, then samples were subjected for LC/MS/MS analysis. XL fit was used to plot the percent of vehicle control vs the test compound concentrations, and for non-linear regression analysis of the data. IC50 values were determined using 3- or 4-parameter logistic equations.

[5] = Plasma stability, mice; assay type: in vitro ADME; details: mouse
Experimental: (§3) Propantheline bromide was used as a reference compound in this assay. The pooled frozen plasma was thawed in a water bath at 37° C. prior to experiment. Plasma was centrifuged at 4000 rpm for 5 min and the clots were removed if any. The pH will be adjusted to 7.4 ± 0.1 if required.
(§4) Preparation of compounds: 1 mM intermediate solution was prepared by diluting 10 µL of the stock solution with 90 µL DMSO; 1 mM intermediate of positive control Propantheline was prepared by diluting 10 µL of the stock solution with 90 µL ultrapure water. For test compounds, 100 µM dosing solution was prepared by diluting 10 µL of the intermediate solution (1 mM) with 90 µL DMSO. […] 98 µL of blank plasma was spiked with 2 µL of dosing solution (100 µM) to achieve 2 µM of the final concentration in duplicate and samples were Incubated at 37° C. in a water bath. […] Centrifuged sample plates at 4,000 rpm for 10 min. An aliquot of supernatant (50 µL) was transferred from each well and mixed with 100 µL ultra-pure water. The samples were shaken at 800 rpm for about 10 min before submitting to LC-MS/MS analysis. The % remaining of test compound after incubation in plasma was calculated using following equation:
(§5) where PAR is the peak area ratio of analyte versus internal standard (IS).

[6] = target: CYP 3A4 (Homo sapiens, UniProt P08684); test: CYP inhibition assay, 3A4
Chain of CYP 3A4 (P08684 whole entry): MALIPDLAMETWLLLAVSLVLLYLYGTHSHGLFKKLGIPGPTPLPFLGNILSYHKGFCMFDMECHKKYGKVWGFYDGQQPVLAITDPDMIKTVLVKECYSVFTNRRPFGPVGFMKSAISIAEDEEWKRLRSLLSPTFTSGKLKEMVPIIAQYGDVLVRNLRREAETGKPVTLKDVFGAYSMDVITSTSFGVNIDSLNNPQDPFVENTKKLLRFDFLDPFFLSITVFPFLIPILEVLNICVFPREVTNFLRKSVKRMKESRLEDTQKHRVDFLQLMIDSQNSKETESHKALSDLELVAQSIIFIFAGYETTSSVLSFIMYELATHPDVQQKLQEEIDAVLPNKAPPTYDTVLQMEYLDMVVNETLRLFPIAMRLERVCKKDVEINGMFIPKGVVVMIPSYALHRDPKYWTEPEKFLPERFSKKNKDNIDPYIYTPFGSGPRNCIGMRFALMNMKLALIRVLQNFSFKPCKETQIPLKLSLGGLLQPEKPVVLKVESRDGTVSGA
Experimental: as §2

[7] = target: CYP 2D6 (Homo sapiens, UniProt P10635); test: CYP inhibition assay, 2D6
Chain of CYP 2D6 (P10635 whole entry): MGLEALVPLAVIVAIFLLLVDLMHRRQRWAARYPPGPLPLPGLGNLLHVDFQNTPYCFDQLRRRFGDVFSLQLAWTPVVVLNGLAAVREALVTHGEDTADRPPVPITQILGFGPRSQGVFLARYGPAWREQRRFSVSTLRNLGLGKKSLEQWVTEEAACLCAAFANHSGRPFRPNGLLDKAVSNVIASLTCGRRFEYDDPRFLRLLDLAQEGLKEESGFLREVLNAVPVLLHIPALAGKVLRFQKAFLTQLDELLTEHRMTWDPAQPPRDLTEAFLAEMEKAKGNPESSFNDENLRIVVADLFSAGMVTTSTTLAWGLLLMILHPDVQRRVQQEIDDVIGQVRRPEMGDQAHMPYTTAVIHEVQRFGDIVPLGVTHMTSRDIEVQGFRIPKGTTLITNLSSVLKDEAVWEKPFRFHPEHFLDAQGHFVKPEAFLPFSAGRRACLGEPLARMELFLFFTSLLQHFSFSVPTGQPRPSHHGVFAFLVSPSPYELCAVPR
Experimental: as §2

[8] = target: CYP 2C9 (Homo sapiens, UniProt P11712); test: biochemical
Chain of CYP 2C9 (P11712 whole entry): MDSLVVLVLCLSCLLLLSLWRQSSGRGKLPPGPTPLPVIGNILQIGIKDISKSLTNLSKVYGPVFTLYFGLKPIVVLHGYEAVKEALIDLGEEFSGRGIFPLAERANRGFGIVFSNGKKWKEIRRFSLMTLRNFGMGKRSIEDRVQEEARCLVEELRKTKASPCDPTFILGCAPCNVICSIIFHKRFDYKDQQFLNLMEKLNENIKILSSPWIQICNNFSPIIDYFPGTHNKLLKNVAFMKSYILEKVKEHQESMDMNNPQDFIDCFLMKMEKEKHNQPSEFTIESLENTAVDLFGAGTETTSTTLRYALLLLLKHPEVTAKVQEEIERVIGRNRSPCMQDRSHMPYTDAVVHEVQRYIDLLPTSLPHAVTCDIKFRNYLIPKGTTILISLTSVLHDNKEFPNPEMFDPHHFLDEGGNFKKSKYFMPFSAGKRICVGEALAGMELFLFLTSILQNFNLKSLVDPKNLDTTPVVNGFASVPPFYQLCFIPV
Experimental: as §2

[9] = target: T2, CYP 1A2 (Homo sapiens, UniProt P05177); test: CYP inhibition assay, 1A2
T2 sequence (P05177 1-516): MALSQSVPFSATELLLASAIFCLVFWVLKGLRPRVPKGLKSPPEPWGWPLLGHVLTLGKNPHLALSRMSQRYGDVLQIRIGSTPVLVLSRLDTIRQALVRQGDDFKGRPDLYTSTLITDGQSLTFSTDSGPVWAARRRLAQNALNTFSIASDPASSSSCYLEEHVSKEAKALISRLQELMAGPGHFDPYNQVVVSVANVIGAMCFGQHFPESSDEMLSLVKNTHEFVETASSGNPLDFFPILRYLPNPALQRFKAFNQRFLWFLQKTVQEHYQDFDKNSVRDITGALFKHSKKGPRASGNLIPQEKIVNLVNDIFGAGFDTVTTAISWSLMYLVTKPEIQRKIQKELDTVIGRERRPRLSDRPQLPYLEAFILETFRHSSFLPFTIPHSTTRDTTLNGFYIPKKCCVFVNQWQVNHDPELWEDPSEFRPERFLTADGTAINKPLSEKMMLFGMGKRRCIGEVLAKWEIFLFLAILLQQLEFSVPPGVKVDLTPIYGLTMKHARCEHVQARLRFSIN
Experimental: as §2

[10] = Microsomal stability, mouse liver microsomes; assay type: in vitro ADME; details: CD-1, mouse
Experimental: as §1

[11] = physchem; details: water, kinetic from dmso stock
[12] = PAMPA permeability assay; assay type: in vitro ADME
Experimental: 2.6 g KH2PO4 and 18.5 g K3PHO4×3H2O were dissolved in 1000 mL of ultra-pure water, mixed thoroughly. The pH was adjusted to 7.40 ± 0.05, using either 1 M sodium hydroxide or 1 M hydrochloric acid. 0.2 mM working solution was prepared by diluting 10 mM stock solution with DMSO. 10 µM donor solution (5% DMSO) was prepared by diluting 20 µL of working solution with 380 µL PBS. 150 µL of 10 µM donor solutions to each well of the donor plate, whose PVDF membrane was precoated with 5 µL of 1% lecithin/dodecane mixture. Duplicates were prepared. 300 µL of PBS was added to each well of the PTFE acceptor plate. The donor plate and acceptor plate were combined together and incubated for 4 h at room temperature with shaking at 300 rpm. […] Preparation of acceptor sample: the plate was removed from the incubator. 270 µL solution was transferred from each acceptor well and mixed with 130 µL ACN (containing internal standard) as acceptor sample. […] Acceptor samples and donor samples were all analyzed by LC-MS/MS.

[13] = Caco-2 permeability; assay type: in vitro ADME; details: human, Caco-2, pH 7.4
Experimental: Medium was refreshed every 4 \~5 days until the 21st to 28th day for confluent cell monolayer formation. The transport buffer was HBSS with 10 mM HEPES at pH=7.40±0.05. […] Final DMSO concentration was adjusted to less than 1%. The plate was incubated for 2 h in the CO2 incubator at 37±1° C., with 5% CO2 at saturated humidity without shaking. All the samples were then mixed with acetonitrile containing internal standard and centrifuged at 3200 xg for 10 min. For nadolol and metoprolol, 100 µL supernatant solution was diluted with 300 µL distilled water for LC-MS/MS analysis. For digoxin and test compounds, 100 µL supernatant solution was diluted with 100 µL distilled water for LC-MS/MS analysis. Concentrations of test and control compounds in starting solution, donor solution, and receiver solution were quantified by LC-MS/MS methodologies, using peak area ratio of analyte/internal standard. After transport assay, lucifer yellow rejection assay was applied to determine the Caco-2 cell monolayer integrity. The apparent permeability coefficient Papp (cm/s) was calculated using the equation:
where d/Cr/6t is the cumulative concentration of compound in the receiver chamber as a function of time (µM/s); Vr is the solution volume in the receiver chamber (0.075 mL on the apical side, 0.25 mL on the basolateral side); A is the surface area for the transport, i.e. 0.0804 cm^2 for the area of the monolayer; C0 is the initial concentration in the donor chamber (µM).
The efflux ratio was calculated using the equation:
where Vd is the volume in the donor chambers (0.075 mL on the apical side, 0.25 mL on the basolateral side); Cd and Cr are the final concentrations of the transport compound in donor and receiver chambers, respectively.

[14] = in vitro; details: human
[15] = Plasma stability, human; assay type: in vitro ADME; details: pH 7.4
Experimental: as §3, §4, §5

[16] = system: SARS-CoV-2; test: In vitro antiviral cell-based assay (live SARS-CoV-2 IFA) in Vero cells; details: Severe acute respiratory syndrome coronavirus 2, MOI ~0.0125, 24 hpi
[17] = target: T1, SARS-CoV-2 M^PRO; test: Crystal structure of ligand bound to SARS-CoV-2 M^pro; details: X-ray, complex with SARS-CoV-2 M^pro
[18] = Cytotoxicity (CC50) in Vero cells; details: African green monkey
[19] = plasma
[20] = mouse, plasma
[21] = in vitro; details: African green monkey

Row | Structure (SMILES) | IC50 [1] [µM] | IC50 [4] [µM] | half-life at 2 µM ([5]; pH 7.4) [min] | IC50 [6] [µM] | IC50 [7] [µM] | IC50 [8] [µM] | IC50 [9] [µM] | solubility kinetic [11] [µM] | half-life at 2 µM [15] [min] | EC50 [16] [µM] | further results
1 | CC(C(=O)NC1CCC(F)(F)CC1)(c1cnccn1)N(C(=O)CCl)c1ccc(-c2ccns2)cc1 (centres unmarked) [INSCoV-601N, 2-(2-Chloro-N-(4-(isothiazol-5-yl)phenyl)acetamido)-N-(4,4-difluorocyclohexyl)-2-(pyrazin-2-yl)propanamide] | 0.12 | 5.65 | 21.1 | 0.218 | 0.706 | 3.25 | 24.9 | < 1.56 | 32.6 |  | recovery [2]: 0.1%; microsomal CLint [3]: 169 µL/min/mg; microsomal CLint [10]: 531 µL/min/mg; Papp at 4 h, 10 µM ([12]; pH 7.4, pH 7.40, 4 h, read-out: PAMPA, Mean Pe): 15.5 ×10⁻⁶ cm/s; Papp A→B at 2 h, 2 µM ([13]; A to B, 2.00 µM, pH 7.40, read-out: Caco-2, Mean Papp,, A to B): < 0.0434 ×10⁻⁶ cm/s; recovery [14]: 0.2%
2 | CC(C(=O)NC1CCC(F)(F)CC1)(c1cncnc1)N(C(=O)CCl)c1ccc(-c2ccno2)cc1 (single isomer, unassigned) [INSCoV-601P(1A), 2-(2-Chloro-N-(4-(isoxazol-5-yl)phenyl)acetamido)-N-(4,4-difluorocyclohexyl)-2-(pyrimidin-5-yl)propanamide] | 0.14 | > 50 | 13.1 | 3.62 | 6.12 | > 50 | > 50 | 142 (≈ 71.6 µg/mL) | 16.3 |  | recovery [2]: 2.8%; microsomal CLint [3]: 66 µL/min/mg; microsomal CLint [10]: 102 µL/min/mg; Papp at 4 h, 10 µM ([12]; pH 7.4): 0.626 ×10⁻⁶ cm/s; Papp A→B at 2 h, 2 µM [13]: < 0.48 ×10⁻⁶ cm/s; efflux ratio at 2 h, 2 µM [13]: > 0.489; recovery [14]: 1.3%
3 | O=C(NC1CCC(F)(F)CC1)[C@@H](c1cnccn1)N(C(=O)CCl)c1ccc(-c2ccns2)cc1 [INSCoV-601I(l)] | 0.05 |  |  |  |  |  |  |  |  | 14.1 | Binding mode in crystal structure [17]: covalently bound to Cys145 residue of SARS-CoV-2 M^Pro
4 | O=C(NC1CCC(F)(F)CC1)[C@@H](c1cncnc1)N(C(=O)[C@@H](F)Cl)c1ccc(-c2ccno2)cc1 (single isomer, unassigned) [INSCoV-614A(2A), 2-Chloro-N-(2-((4,4-difluorocyclohexyl)amino)-2-oxo-1-(pyrimidin-5-yl)ethyl)-2-fluoro-N-(4-(isoxazol-5-yl)phenyl)acetamide] | 0.18 |  |  |  |  |  |  |  |  | 4.25 | 
5 | N#Cc1cc(OC(F)(F)F)ccc1N(C(=O)CCl)C(C(=O)NC1CCC(F)(F)CC1)c1cncnc1 (centres unmarked) [INSCoV-517A, 2-chloro-N-(2-cyano-4-(trifluoromethoxy)phenyl)-N-(2-((4,4-difluorocyclohexyl)amino)-2-oxo-1-(pyrimidin-5-yl)ethyl)acetamide] | 0.09 |  |  |  |  |  |  |  |  | 11.1 | 
6 | O=C(NC1CCC(F)(F)CC1)C(c1cnccn1)N(C(=O)CCl)c1ccc(-c2ccns2)cc1 (centres unmarked) [INSCoV-601I, 2-Chloro-N-(2-((4,4-difluorocyclohexyl)amino)-2-oxo-1-(pyrazin-2-yl)ethyl)-N-(4-(isothiazol-5-yl)phenyl)acetamide] | 0.062 |  |  |  |  |  |  |  |  | 11.1 | 
7 | O=C(NC1CCC(F)(F)CC1)C(c1cncnc1)N(C(=O)CCl)c1ccc(-c2cncs2)cc1 (centres unmarked) [INSCoV-600K, 2-Chloro-N-(2-((4,4-difluorocyclohexyl)amino)-2-oxo-1-(pyrimidin-5-yl)ethyl)-N-(4-(thiazol-5-yl)phenyl)acetamide] | 0.078 |  |  |  |  |  |  |  |  | 14.5 | 
8 | Cc1cccc(C)c1OCC(=O)N[C@@H](Cc1ccccc1)[C@@H](O)C[C@H](Cc1ccccc1)NC(=O)[C@H](C(C)C)N1CCCNC1=O [Lopinavir, lopinavir, reference compound] |  |  |  |  |  |  |  |  |  | 13.9 | CC50 at 24 h [18]: > 50 µM
9 | O=C(NC1CCC(F)(F)CC1)[C@@H](c1cncnc1)N(C(=O)[C@@H](F)Cl)c1ccc(-c2cncs2)cc1 (single isomer, unassigned) [INSCoV-614(1B), 2-Chloro-N-(2-((4,4-difluorocyclohexyl)amino)-2-oxo-1-(pyrimidin-5-yl)ethyl)-2-fluoro-N-(4-(thiazol-5-yl)phenyl)acetamide] | 0.06 | 9.5 | > 289 | 1.45 | 6.5 | 15.6 | 24.3 | 164 (≈ 85.9 µg/mL) | > 289 | 2.23 | PPB, human, % Bound [19]: 70.59%; Stability in plasma (in words) [5]: significantly improved stability in plasma; Plasma stability, T½, min, mice ([5]; 2 µM, pH 7.4): >289.1 min; PAMPA, Mean Pe ([12]; 4 h, 10 µM, pH 7.4): 0.188 ×10⁻⁶ cm/s; Papp at 4 h, 10 µM ([12]; pH 7.4): 0.188 ×10⁻⁶ cm/s; PPB, mice, % Bound [20]: 83.78%; CC50 at 24 h [21]: > 25 µM; Plasma stability, T½, min, human ([15]; 2 µM): >289.1 min
10 | N#Cc1cc(OC(F)(F)F)ccc1N(C(=O)CCl)C(C(=O)NC1CCCCC1)c1cccnc1 (centres unmarked) [INSCoV-517] | 0.24 |  |  |  |  |  |  |  |  | 3.22 | CC50 at 24 h [21]: > 50 µM
